The values below come from patent US20250018019A1, “TREATMENT OF INTERFERON DRIVEN INFLAMMATION” (The Provost, Fellows, Foundation Scholars and the other …, priority 2023, published 2025).

The subject of one assay is BMDMs. The assay can be described thus: Seahorse XF Glycolysis Stress Test (ECAR). It counts as cell-based, mouse. The note with it: BMDMs pre-treated 3 h, LPS 4 h. The procedure: All compounds used DMSO as a vehicle except for 4-hydroxy tamoxifen (EtOH), NAC (PBS), and AOAA for tracing experiments (Media). LPS was used at a concentration of 100 ng/ml for indicated timepoints (2, 3, 4, 6, 8, 24, 48 h). FHIN1 (10 or 20 μM), MMF (50 or 100 μM), DMF (25 μM), AOAA (5 mM), oligomycin (10 μM), CCCP (50 μM) NAC (1 mM), and IMT1 (10 μM) pre-treatments were performed for 3 h prior the addition of LPS. Cells were treated with valinomycin (10 nM) 15 mins before LPS stimulation. Anti-CD210 or IgG control (10 μg/ml) antibodies were added to cells 1 h prior to LPS stimulation. Recombinant mouse IL-10 protein (100 ng/ml) was added to cells at the same time as LPS. Cells were treated with IFN-B1 (220 ng/ml) for 3 h. Cells were treated with C-178 (1 μM) 1 h prior to LPS stimulation or transfection with 2′3′-cGAMP (1.5 μg/ml) for 4 hrs to achieve cGAS-STING activation. Cells were treated with ODN 2088 (1 μM) for 1 hr prior to LPS stimulation or transfection with CPG ODN 1826 (1.5 μg/ml) to achieve TLR9 activation. 3 different timepoints of 4-hydroxy tamoxifen (TAM) (600 nM or 2 μM) or EtOH treatment were performed-these are specified in the individual figure legends. For ‘48 h’ treatments EtOH/TAM was added on day 5 of 6 during the BMDM differentiation protocol. On day 6 they were plated with EtOH/TAM (left overnight) and treated the following day. […]

The test system of the next assay is MAVS. The experiment in a line: MAVS oligomerisation. It counts as cell-based, mouse. The conditions noted are these: BMDMs pre-treated, LPS 4 h. The procedure: BMDMs were plated at 1×10^6 cells/well in technical triplicate and treated as desired. After treatment, cells were washed twice with 200 μl cold PBS before being lysed in crosslinking lysis buffer (50 mM HEPES, 0.5% triton X-100, 1X protease inhibitor cocktail). Samples were placed on ice for 15 mins. Lysates were centrifuged for 15 mins at 6000×g at 4° C. and the supernatant was removed and frozen down as the ‘soluble fraction.’ 20 μl of the soluble fraction was mixed with 5 μl of sample lysis buffer (0.125 M Tris pH 6.8, 10% glycerol, 0.02% SDS, 5% DTT) and run on a 10% gel. The insoluble pellet was resuspended in HEPES (50 mM) and washed 3 times by centrifuging at 6000×g at 4° C. and removing the supernatant each time. After the final wash, the pellet was resuspended in 500 μl crosslinking buffer (50 mM HEPES, 150 mM NaCl) and disuccinimidyl suberate (DSS, Thermo Fisher, made up in anhydrous DMSO) was added to the final concentration of 2 mM. Immediately following the addition of DSS, the sample was inverted several times and incubated for 45 mins at 37° C. The sample was then centrifuged for 15 mins at 6000×g at 4° C., before the supernatant was removed and the pellet was resuspended in 30 μl sample lysis buffer. The resuspended ‘insoluble fraction’ was subsequently boiled for 5 mins at 95° C. before being run on a gel.

For the next assay, the system named is human macrophages. The assay can be described thus: RT-qPCR gene expression in human macrophages. Type of assay: cell-based. The conditions noted are these: LPS-stimulated human macrophages, LPS 4 h. The procedure:
PBMCs were taken, and CD14+ monocytes were isolated using MagniSort Human CD14 Positive Selection Kit (Thermo Fisher) according to the manufacturer's protocol. CD14 Monocytes were then differentiated in T-175 flasks in RPMI containing FCS (10%), penicillin/streptomycin (1%) and recombinant human M-CSF (1:1000). After 6 days, the supernatant was discarded, cells were scraped and counted, and human monocyte-derived macrophages (hMDMs) were plated in 12-well plates at 1×10^6 cells/mL RPMI containing FCS (10%) and penicillin/streptomycin (1%).
All compounds used DMSO as a vehicle except for 4-hydroxy tamoxifen (EtOH), NAC (PBS), and AOAA for tracing experiments (Media). […]
RNA extraction from cells was carried out using a Purelink™ RNA kit (Invitrogen) according to the manufacturer's instructions. […] Isolated RNA was quantified using a NanoDrop 2000 spectrophotometer, and RNA concentration was normalised to the lowest concentration across all samples with RNAse-free water. If necessary, samples were DNAse-treated after quantification using DNAse I (Thermo Fisher) according to the manufacturer's instructions. […] Real-time quantitative PCR was performed on the cDNA generated in the previous step, using primers designed in-house and ordered from Eurofins Genomics, as detailed in Table S2. […] Relative expression (2^−ΔΔCT) was calculated from the CT values for each sample and gene of interest.
In general terms: In qPCR the cycle at which signal appears reflects the starting amount.

Where a name gives a salt, the structure may show the parent alone.

On to `COC(=O)/C=C/C(=O)OC` [DMF, dimethyl fumarate], for which, in the assay with BMDMs, the “glycolysis (ECAR)” value is on record as “suppressed glycolysis”.
Consider `CCOC(=O)[C@@]12CCCC=C1N(Cc1ccc(-c3ccccc3)cc1)C(=O)[C@H]2CC(=O)NC` [FHIN1, Fumarate hydratase-IN-1], for which the MAVS oligomerisation entry in the assay on MAVS was “observed MAVS oligomerisation”. Moreover, in the assay with human macrophages, the IL10 expression entry is “suppressed” and the Tnfa expression entry was “increased”.
